{"source": "patent US10016424B2", "about": "“Method and pharmaceutical composition for use in the treatment of epilepsy” (INSERM (Institut National de la Sante et de la Recherche …, priority 2013, dated 2018)", "key": {"[1]": {"system": "dentate gyrus of organotypic slices", "test": "Spontaneous interictal-like activity, extracellular field recordings in pilocarpine-treated organotypic hippocampal slice cultures", "type": "cell-based, mouse", "details": "P=0.902, n=6"}, "GluK2/GluK5 receptors": {"molecular_target": "GluK2/GluK5 receptors (Homo sapiens, UniProt Q13002+Q16478)", "sequence (Q13002 32-908)": "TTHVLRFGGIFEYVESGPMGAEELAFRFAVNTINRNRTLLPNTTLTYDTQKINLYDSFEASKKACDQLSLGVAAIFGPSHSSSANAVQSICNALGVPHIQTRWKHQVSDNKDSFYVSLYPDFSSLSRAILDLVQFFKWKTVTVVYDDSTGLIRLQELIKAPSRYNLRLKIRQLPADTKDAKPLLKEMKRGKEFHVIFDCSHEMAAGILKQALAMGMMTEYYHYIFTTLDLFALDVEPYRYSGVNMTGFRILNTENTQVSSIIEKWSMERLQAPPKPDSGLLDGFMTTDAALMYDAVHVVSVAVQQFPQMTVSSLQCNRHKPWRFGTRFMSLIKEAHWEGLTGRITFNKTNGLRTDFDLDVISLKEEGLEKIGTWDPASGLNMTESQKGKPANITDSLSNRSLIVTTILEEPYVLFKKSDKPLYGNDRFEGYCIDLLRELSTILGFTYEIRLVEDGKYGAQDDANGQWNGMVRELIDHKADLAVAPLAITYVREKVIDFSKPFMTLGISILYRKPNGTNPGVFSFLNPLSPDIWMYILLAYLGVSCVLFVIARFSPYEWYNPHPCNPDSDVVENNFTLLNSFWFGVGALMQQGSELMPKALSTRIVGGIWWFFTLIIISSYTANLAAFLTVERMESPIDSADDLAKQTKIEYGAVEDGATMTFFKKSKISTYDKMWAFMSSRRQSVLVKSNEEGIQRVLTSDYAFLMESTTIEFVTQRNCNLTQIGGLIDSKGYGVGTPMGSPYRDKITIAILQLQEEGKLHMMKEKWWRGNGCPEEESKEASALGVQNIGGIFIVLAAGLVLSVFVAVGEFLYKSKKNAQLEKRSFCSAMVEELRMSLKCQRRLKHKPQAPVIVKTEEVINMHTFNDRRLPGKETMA", "sequence (Q16478 15-980)": "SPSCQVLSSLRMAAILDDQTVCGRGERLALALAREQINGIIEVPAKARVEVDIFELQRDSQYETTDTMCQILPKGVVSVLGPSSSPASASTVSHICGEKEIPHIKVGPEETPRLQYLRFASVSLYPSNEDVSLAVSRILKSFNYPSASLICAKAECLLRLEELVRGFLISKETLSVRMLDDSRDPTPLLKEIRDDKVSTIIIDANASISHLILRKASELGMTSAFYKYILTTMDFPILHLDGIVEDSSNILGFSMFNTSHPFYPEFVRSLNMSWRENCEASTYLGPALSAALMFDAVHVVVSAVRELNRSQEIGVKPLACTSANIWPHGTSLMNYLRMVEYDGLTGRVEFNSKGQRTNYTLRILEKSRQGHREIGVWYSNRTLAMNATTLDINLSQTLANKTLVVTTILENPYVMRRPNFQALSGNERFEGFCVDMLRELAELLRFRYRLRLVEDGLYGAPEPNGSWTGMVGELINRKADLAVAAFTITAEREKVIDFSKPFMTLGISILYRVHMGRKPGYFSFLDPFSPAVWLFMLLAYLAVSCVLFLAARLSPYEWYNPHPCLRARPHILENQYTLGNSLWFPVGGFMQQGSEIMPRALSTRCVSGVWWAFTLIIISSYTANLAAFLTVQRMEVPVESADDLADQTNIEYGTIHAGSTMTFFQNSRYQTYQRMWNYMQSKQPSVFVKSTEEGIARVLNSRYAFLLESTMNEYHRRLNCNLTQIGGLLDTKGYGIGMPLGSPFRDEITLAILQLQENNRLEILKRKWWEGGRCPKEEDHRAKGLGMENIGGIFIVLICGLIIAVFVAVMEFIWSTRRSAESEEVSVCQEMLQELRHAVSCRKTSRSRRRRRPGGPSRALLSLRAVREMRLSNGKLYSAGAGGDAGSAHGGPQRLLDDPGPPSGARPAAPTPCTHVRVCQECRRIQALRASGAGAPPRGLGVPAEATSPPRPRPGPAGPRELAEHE", "details": "cited from earlier work"}, "[2]": {"system": "pilocarpine-status epilepticus model of chronic TLE", "test": "Ictal discharges, telemetric intrahippocampal EEG in freely-moving pilocarpine-treated mice", "type": "in vivo, mouse", "procedure": "All experiments were approved by the Institut National de la Santé et de la Recherche Médicale animal care and use committee of May 29, 2001 (2001-464) and the European community council directive of Nov. 24, 1986 (86/609/EEC). Mice (FVB/N background) had access to food and water ad libitum and were housed under a 12 h light/dark cycle at 22-24° C. Male GluK2−/− and WT mice (P60-80) were given scopolamine (1 mg/kg) subcutaneously (s.c.) 15 minutes prior to s.c. administration of pilocarpine (200-600 mg/kg). A ramp protocol was used whereby animals were given an initial dose of 200 mg/kg followed by half-doses every 30 minutes until seizures appeared. Both WT and GluK2−/− mice typically experienced at least two seizures prior to entering status epilepticus (SE). Diazepam (10 mg/kg) was administered 45 minutes after onset of SE.\nNaïve wildtype (WT) and pilocarpine-treated WT or GluK2−/− mice (5-6 months old) were anaesthetized with xylazine 13 mg/kg/ketamine 66 mg/kg and placed in a stereotaxic frame (supplemental dosing was administered as required). Body temperature was maintained using a heating pad. […] After a 4 day recovery, EEG (amplified (1000×), filtered at 0.16-97 Hz pass, acquired at 500 Hz) was monitored using a telemetric system (Data Sciences International, St. Paul, Minn.) for 4 days, 24 h per day. […]"}, "AMPA receptor": {"system": "AMPA receptor", "details": "cited from earlier work"}}, "data": [{"smiles": "Cc1cn(C[C@H](N)C(=O)O)c(=O)n(Cc2ccsc2C(=O)O)c1=O", "note": "[UBP310]", "values": [{"measurement": "reduction of frequency of interictal-like activity in GluK1-/- versus WT mice", "setting": "[1]", "value": "similarly effective"}, {"measurement": "inhibition of heteromeric GluK2/GluK5 receptors", "setting": "GluK2/GluK5 receptors", "value": "inhibits GluK2/GluK5"}, {"measurement": "change in duration of ictal events", "setting": "[2]; 60 mg/kg intraperitoneal for 3 days, P=0.286", "value": "without a significant change"}, {"measurement": "reduction of number of ictal events", "setting": "[2]; 60 mg/kg intraperitoneal twice a day for 3 days, WT epileptic mice, freely moving", "value": 41, "unit": "%"}, {"measurement": "interference with normal synaptic transmission due to the AMPA receptor", "setting": "AMPA receptor", "value": "does not interfere"}]}]}
